Test results published in patent US10787430B2, “Hemoglobin modifier compounds and uses thereof” (FronThera U.S. Pharmaceuticals LLC, priority 2016, dated 2020).

How the values were obtained:
[1] = biological target: T1, hemoglobin (normal human adult blood) (Homo sapiens, UniProt P68871+P69905); assay: Time-dependent oxygen equilibrium curve (OEC) studies in normal whole blood; type: cell-based; settings: 2 mM compound, 2% DMSO, normal human blood 20% hematocrit, 37° C., 1 h
T1 construct: Normal whole blood was collected from adult healthy donors; from tissue; host or cells: normal human whole blood (red blood cells), adult healthy donors
Procedure: (§1) Materials: Normal whole blood was collected from adult healthy donors at the Virginia Commonwealth University after informed consent. The use of these human samples is in accordance with regulations of the IRB for Protection of Human Subjects. Compounds (50 mM-100 mM concentration in DMSO) were stored at 15° C. or room temperature until use.
The time-dependent OEC studies were conducted on normal human adult blood samples with hematocrit value of 20% in the absence or presence of effectors solubilized in DMSO at final drug and DMSO concentrations of 2 mM and 2%, respectively. […] The mixture was further incubated at 37° C. with shaking. […] After equilibration, the sample was removed by syringe and aspirated into a ABL 700 series table top automated blood gas analyzer (Radiometer America, Inc., Westlake, Ohio) to determine values of total hemoglobin (tHb), methemoglobin (metHb), hematocrit (Hct), pH, partial pressure of oxygen (pO2), and Hb oxygen saturation values (sO2). The measured values of sO2 and pO2 at each partial pressure of oxygen are then subjected to a non-linear regression analysis using the program Scientist (Micromath, Salt Lake City, Utah) with the following equation: […]
This equation was used to calculate P50 and Hill coefficient (N) values. Corresponding control experiments without the test compound (P50control) but containing DMSO were also performed. GBT440 was used as a positive control.

[2] = biological target: T2, hemoglobin (20% hct blood) (Homo sapiens, UniProt P68871+P69905); assay: Dose-dependent whole blood OEC studies; type: cell-based; settings: 37° C., 1 hr; for delta p50 0.2 mM: 0.2 mM compound; for delta p50 0.5 mM: 0.5 mM compound
T2 construct: Normal whole blood was collected from adult healthy donors; from tissue; host or cells: normal human whole blood (red blood cells), adult healthy donors
Procedure: as §1
To 2 ml 20% hct blood, 0.2 or 0.5 or 1 mM compound was added and kept shaking at 37° C. for 1 hr. OEC analysis was performed as described above to determine partial pressure of oxygen (pO2) and Hb oxygen saturation values (sO2). A control without compound but containing equivalent amount of DMSO was performed (1%). GBT440 was used as a positive control. Table 2 below lists the delta p50% values.

T2 sequence (P69905 2-142 limits assumed): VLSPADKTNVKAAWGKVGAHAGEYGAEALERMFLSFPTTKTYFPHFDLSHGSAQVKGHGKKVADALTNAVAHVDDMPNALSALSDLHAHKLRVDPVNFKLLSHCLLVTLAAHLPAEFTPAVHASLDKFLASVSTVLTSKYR
T2 sequence (P68871 2-147 limits assumed): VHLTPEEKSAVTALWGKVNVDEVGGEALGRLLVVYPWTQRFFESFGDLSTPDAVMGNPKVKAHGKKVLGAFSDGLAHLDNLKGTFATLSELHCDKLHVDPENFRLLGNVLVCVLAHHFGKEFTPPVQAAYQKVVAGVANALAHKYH
T1 sequence (P69905 2-142 limits assumed): as the sequence (P69905 2-142 limits assumed) above
T1 sequence (P68871 2-147 limits assumed): as the sequence (P68871 2-147 limits assumed) above

Row | delta p50 [1] | delta p50 0.2 mM [2] | delta p50 0.5 mM [2] | SMILES
1 | −77% | – | – | CC(C)n1nccc1-c1ncccc1COc1ccc2ccoc2c1C=O [Example 5, 6-((2-(1-isopropyl-1H-pyrazol-5-yl)pyridin-3-yl)methoxy)benzofuran-7-carbaldehyde]
2 | −72% | – | – | CC(C)n1nccc1-c1ncccc1COc1ccc2c(c1C=O)CCS2(=O)=O [Example 21, 5-((2-(1-isopropyl-1H-pyrazol-5-yl)pyridin-3-yl)methoxy)-2,3-dihydrobenzo[b]thiophene-4-carbaldehyde 1,1-dioxide]
3 | −54% | – | – | CC(C)n1nccc1-c1nn(C)c(=O)cc1COc1cccc(O)c1C=O [Example 59, 2-hydroxy-6-((3-(1-isopropyl-1H-pyrazol-5-yl)-1-methyl-6-oxo-1,6-dihydropyridazin-4-yl)methoxy)benzaldehyde]
4 | −59% | – | – | CC(C)n1nccc1-c1nccc2c1C(Oc1cccc(O)c1C=O)CO2 (centres unmarked) [Example 61g, 2-hydroxy-6-((4-(1-isopropyl-1H-pyrazol-5-yl)-2,3-dihydrofuro[3,2-c]pyridin-3-yl)oxy)benzaldehyde]
5 | −63% | – | – | CC(C)n1nccc1-c1nccc2c1[C@@H](Oc1cccc(O)c1C=O)CO2 [Example 62a, (R)-2-hydroxy-6-((4-(1-isopropyl-1H-pyrazol-5-yl)-2,3-dihydrofuro[3,2-c]pyridin-3-yl)oxy)benzaldehyde]
6 | −63% | – | – | CC(C)n1nccc1-c1ncccc1COc1ccc2ocnc2c1C=O [Example 14, 5-((2-(1-isopropyl-1H-pyrazol-5-yl)pyridin-3-yl)methoxy)benzo[d]oxazole-4-carbaldehyde]
7 | −81% | – | – | CC(C)n1nccc1-c1ncccc1COc1ccc2ncoc2c1C=O [Example 15, 6-((2-(1-isopropyl-1H-pyrazol-5-yl)pyridin-3-yl)methoxy)benzo[d]oxazole-7-carbaldehyde]
8 | −59% | – | – | CC(C)n1nccc1-c1ncccc1COc1ccc2c(c1C=O)OCCO2 [Example 7, 6-((2-(1-isopropyl-1H-pyrazol-5-yl)pyridin-3-yl)methoxy)-2,3-dihydrobenzo[b][1,4]dioxine-5-carbaldehyde]
9 | – | −6% | −12% | [2H]C([2H])(Oc1ccc(F)c(O)c1C=O)c1cncnc1-c1ccnn1C(C)C [Example 40, 3-fluoro-2-hydroxy-6-((4-(1-isopropyl-1H-pyrazol-5-yl)pyrimidin-5-yl)methoxy-d2)benzaldehyde]
10 | – | −20.50% | −37.80% | CC(C)n1nccc1-c1ncncc1COc1ccc2ncsc2c1C=O [Example 53, 6-((4-(1-isopropyl-1H-pyrazol-5-yl)pyrimidin-5-yl)methoxy)benzo[d]thiazole-7-carbaldehyde]
11 | – | −10.00% | −31.00% | CC(C)n1nccc1-c1scnc1COc1cccc(O)c1C=O [Example 64, 2-hydroxy-6-((5-(1-isopropyl-1H-pyrazol-5-yl)thiazol-4-yl)methoxy)benzaldehyde]
12 | – | −15.30% | −40.80% | [2H]C([2H])(Oc1cc(F)cc(O)c1C=O)c1ncccc1-c1ccnn1C(C)C [Example 47, 4-fluoro-2-hydroxy-6-((3-(1-isopropyl-1H-pyrazol-5-yl)pyridin-2-yl)methoxy-d2)benzaldehyde]
13 | – | −12.00% | −35.00% | CC(C)n1nccc1-c1ncncc1COc1ccc2ncoc2c1C=O [Example 54, 6-((4-(1-isopropyl-1H-pyrazol-5-yl)pyrimidin-5-yl)methoxy)benzo[d]oxazole-7-carbaldehyde]
14 | – | −11.90% | −40.70% | [2H]C([2H])(Oc1ccc2ncoc2c1C=O)c1cccnc1-c1ccnn1C(C)C [Example 28, 6-((2-(1-isopropyl-1H-pyrazol-5-yl)pyridin-3-yl)methoxy-d2)benzo[d]oxazole-7-carbaldehyde]
15 | – | −10.30% | −29.80% | [2H]C([2H])([2H])C(n1ncc(F)c1-c1ncncc1COc1cccc(O)c1C=O)C([2H])([2H])[2H] [Example 35, 2-((4-(4-fluoro-1-(propan-2-yl-1,1,1,3,3,3-d6)-1H-pyrazol-5-yl)pyrimidin-5-yl)methoxy)-6-hydroxybenzaldehyde]
16 | – | −12.70% | −39.70% | [2H]C([2H])([2H])C(n1nccc1-c1ncccc1COc1ccc2ncoc2c1C=O)C([2H])([2H])[2H] [Example 33, 6-((2-(1-(propan-2-yl-1,1,1,3,3,3-d6)-1H-pyrazol-5-yl)pyridin-3-yl)methoxy)benzo[d]oxazole-7-carbaldehyde]
17 | – | −16.20% | −46.10% | [2H]C([2H])([2H])C(n1nccc1-c1ncncc1COc1cccc(O)c1C=O)C([2H])([2H])[2H] [Example 37, 2-hydroxy-6-((4-(1-(propan-2-yl-1,1,1,3,3,3-d6)-1H-pyrazol-5-yl)pyrimidin-5-yl)methoxy)benzaldehyde]
18 | – | −14.30% | −36.10% | [2H]C([2H])(Oc1cccc(O)c1C=O)c1cccnc1-c1c(F)cnn1C(C)C [Example 25, 2-((2-(4-fluoro-1-isopropyl-1H-pyrazol-5-yl)pyridin-3-yl)methoxy-d2)-6-hydroxybenzaldehyde]
19 | – | −12.20% | −29.30% | [2H]C([2H])(Oc1cc(F)cc(O)c1C=O)c1cncnc1-c1ccnn1C(C)C [Example 39, 4-fluoro-2-hydroxy-6-((4-(1-isopropyl-1H-pyrazol-5-yl)pyrimidin-5-yl)methoxy-d2)benzaldehyde]
20 | – | −12.70% | −39.20% | [2H]C([2H])([2H])C(n1ncc(F)c1-c1ncccc1COc1cccc(O)c1C=O)C([2H])([2H])[2H] [Example 32, 2-((2-(4-fluoro-1-(propan-2-yl-1,1,1,3,3,3-d6)-1H-pyrazol-5-yl)pyridin-3-yl)methoxy)-6-hydroxybenzaldehyde]
21 | – | −6.90% | −22.10% | [2H]C([2H])(Oc1cc(F)cc(O)c1C=O)c1cncnc1-n1ccnc1C(C)C [Example 44, 4-fluoro-2-hydroxy-6-((4-(2-isopropyl-1H-imidazol-1-yl)pyrimidin-5-yl)methoxy-d2)benzaldehyde]
22 | – | −9.80% | −36.10% | [2H]C([2H])([2H])C(n1nccc1-c1ncccc1COc1cc(F)cc(O)c1C=O)C([2H])([2H])[2H] [Example 31, 4-fluoro-2-hydroxy-6-((2-(1-(propan-2-yl-1,1,1,3,3,3-d6)-1H-pyrazol-5-yl)pyridin-3-yl)methoxy)benzaldehyde]
23 | – | −7.00% | −15.20% | CC(C)n1nccc1-c1c(COc2cccc(O)c2C=O)ncn1C [Example 63, 2-hydroxy-6-((5-(1-isopropyl-1H-pyrazol-5-yl)-1-methyl-1H-imidazol-4-yl)methoxy)benzaldehyde]
24 | – | −4.90% | −7.60% | CC(C)n1ncc(F)c1-c1ncncc1COc1cccc(O)c1C=O [Example 57, 2-((4-(4-fluoro-1-isopropyl-1H-pyrazol-5-yl)pyrimidin-5-yl)methoxy)-6-hydroxybenzaldehyde]

Row | SMILES | delta p50 [1] | delta p50 0.2 mM [2] | delta p50 0.5 mM [2]
25 | [2H]C([2H])(Oc1cccc(O)c1C=O)c1c(F)ccnc1-c1ccnn1C(C)C [Example 75, 2-((4-fluoro-2-(1-isopropyl-1H-pyrazol-5-yl)pyridin-3-yl)methoxy-d2)-6-hydroxybenzaldehyde] | – | −13.0% | −53.7%
26 | CC(C)n1nccc1-c1ncn(C)c1COc1cccc(O)c1C=O [Example 69, 2-hydroxy-6-((4-(1-isopropyl-1H-pyrazol-5-yl)-1-methyl-1H-imidazol-5-yl)methoxy)benzaldehyde] | – | −21.40% | −41.80%
27 | [2H]C(C)(C)n1nccc1-c1ncccc1COc1cccc(O)c1C=O [Example 48, 2-hydroxy-6-((2-(1-(propan-2-yl-2-d)-1H-pyrazol-5-yl)pyridin-3-yl)methoxy)benzaldehyde] | – | −11% | −38.10%
28 | [2H]C(C)(C)n1nccc1-c1ncncc1COc1cccc(O)c1C=O [Example 50, 2-hydroxy-6-((4-(1-(propan-2-yl-2-d)-1H-pyrazol-5-yl)pyrimidin-5-yl)methoxy)benzaldehyde] | – | −16.10% | −38.4.%
29 | [2H]C([2H])(Oc1ccc2ncoc2c1C=O)c1cncnc1-n1ccnc1C(C)C [Example 43, 6-((4-(2-isopropyl-1H-imidazol-1-yl)pyrimidin-5-yl)methoxy-d2)benzo[d]oxazole-7-carbaldehyde] | – | −9.90% | −28.10%
